These results are taken from patent US8586768B2, “Design, synthesis and functional characterization of rottlerin analogs” (priority 2009, dated 2013).

Series [1] concerns the target T1, PKCμ (Homo sapiens, UniProt Q15139).
T1 construct: purchased Signal Chem (Richmond, BC, Canada)
T1 sequence (Q15139 1-912): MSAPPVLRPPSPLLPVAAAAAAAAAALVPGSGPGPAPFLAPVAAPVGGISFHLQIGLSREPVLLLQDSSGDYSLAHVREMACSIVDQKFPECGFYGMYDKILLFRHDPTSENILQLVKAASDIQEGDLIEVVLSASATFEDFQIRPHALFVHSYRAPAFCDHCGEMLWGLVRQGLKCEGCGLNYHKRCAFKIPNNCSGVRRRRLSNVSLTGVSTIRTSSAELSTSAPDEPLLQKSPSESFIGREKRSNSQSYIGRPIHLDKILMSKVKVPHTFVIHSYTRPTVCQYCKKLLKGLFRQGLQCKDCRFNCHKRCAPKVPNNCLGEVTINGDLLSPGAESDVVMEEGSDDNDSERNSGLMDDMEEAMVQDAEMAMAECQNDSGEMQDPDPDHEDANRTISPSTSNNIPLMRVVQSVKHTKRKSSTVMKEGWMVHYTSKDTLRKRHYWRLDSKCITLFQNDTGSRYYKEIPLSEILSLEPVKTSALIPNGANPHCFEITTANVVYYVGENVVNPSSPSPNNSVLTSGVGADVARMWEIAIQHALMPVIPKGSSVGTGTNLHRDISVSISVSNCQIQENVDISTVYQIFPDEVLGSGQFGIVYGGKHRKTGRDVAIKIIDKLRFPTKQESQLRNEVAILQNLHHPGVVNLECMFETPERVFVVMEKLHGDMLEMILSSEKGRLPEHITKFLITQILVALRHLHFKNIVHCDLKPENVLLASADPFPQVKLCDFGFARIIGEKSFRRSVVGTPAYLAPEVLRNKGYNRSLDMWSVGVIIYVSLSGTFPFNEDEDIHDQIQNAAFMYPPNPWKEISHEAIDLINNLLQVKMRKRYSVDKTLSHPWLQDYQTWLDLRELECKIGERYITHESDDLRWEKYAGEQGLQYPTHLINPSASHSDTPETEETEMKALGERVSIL
The series is described as follows: In-vitro kinase profiling, radioisotope screening assay (Signal Chem). In kind it is biochemical. The settings on record: 5 μM compound, 50 μM ATP, vs vehicle control; negative = inhibition. The protocol:
(§1) Kinase profiling of PK analogs. The inhibitory effect of lead PK analogs were tested against a panel of 15 protein kinase targets (TABLE 1) to develop better lead candidates without “off” target effects. The selectivity assay was performed at Signal Chem™ (Richmond, BC, Canada) by profiling against protein kinase targets using the “Gold Standard” radioisotope screening assay format. This assay format gave the highest signal noise ratio and allowed the direct measurement of catalytic activity of a protein kinase.
(§2) All assays were performed in triplicate in a 96-well assay format and the % error between triplicates is <10%. Protein kinase assays was performed in the presence of 50 μM ATP at 30° C. for 15 min. The activity of the enzymes in the presence of 5 μM PK analogs was compared to that in the vehicle control and expressed as a percent change in activity relative to that observed in the vehicle control. In TABLE 1, the results are expressed as percent activity change compared to control. The intra-assay variability was determined to be less than 10%. Inhibition of target activity by the compound is shown by a negative value, while activation of target activity is shown by positive value, with values >10% considered to be highly significant.

Series [2] addresses T2, P38α (Homo sapiens, UniProt Q16539).
T2 construct: purchased Signal Chem (Richmond, BC, Canada)
Described as above. It counts as biochemical. The following applies: 5 μM compound, 50 μM ATP, vs vehicle control; negative = inhibition. The procedure:
as §1, §2

For series [3], the target named is T3, PKCα (Homo sapiens, UniProt P17252).
T3 construct: purchased Signal Chem (Richmond, BC, Canada)
Described as above. It counts as biochemical. The settings on record: 5 μM compound, 50 μM ATP, vs vehicle control; negative = inhibition. The protocol: as §1, §2

Series [4] has as its target PKCδ (Homo sapiens, UniProt Q05655). The following applies: background statement; cited from earlier work.
Series [5] relates to mouse primary mesencephalic neuronal cultures. The series is described as follows: 3H-dopamine uptake assay after MPP+ exposure. It counts as cell-based. The settings on record: 10 μM MPP+, 3 μM compound, 48 h. The procedure:
Lead PK analogs protect against MPP^+-induced loss of TH+ neurons in primary mesencephalic cultures. To determine if lead PK analogs protect against degeneration of nigral dopaminergic neurons resulting from MPP+ neurotoxicity, mouse primary mesencephalic neuronal cultures (prepared from E16-18-day-old mice embryos) were exposed to 10 μM MPP^+ in the presence or absence of 3 μM of lead PK analogs, PK103, PK202, PK302 and parent compound rottlerin for 48 h, and then assessed the viability of dopaminergic neurons using the ^3H-dopamine uptake assay. (***p<0.005 (vehicle versus MPTP. ##p<0.01 (PK analogs versus MPTP)). Mazindol, a dopamine reuptake inhibitor, was used as a positive control for the assay.

Series [6] concerns N27 cells. The following applies: 300 μM MPP+ 24 hr. The protocol: (§3) At the end of the treatment, cytotoxicity was measured using the Sytox cell death assay in a 96-well fluorescence microplate reader.
A second generation of rottlerin analogs was further utilized for neuroprotection studies, as shown as PK201-203 in FIG. 2.
as §3
The analogs were tested in an N27 dopaminergic cell model for their neuroprotective properties. […] At the end of the treatment, cytotoxicity was measured using the Sytox cell death assay in a 96-well fluorescence microplate reader.
Rat mesencephalic dopaminergic clonal cells (N27) were used and maintained in RPMI 1640 complete medium supplemented with 10% Fetal Bovine Serum, 1% […] and 1% Penicillin/Streptomycin in a 37° C. incubator with 5% CO2. After 4-6 days in culture, the cells were used for the experiments.
N27 cells were exposed to MPP^+ for 24 hr in the presence or absence of PK analogs in the dose range of 1-30 μM.

The test system of series [7] is C57 black mice. The series is described as follows: MPTP mouse model, tyrosine hydroxylase (TH) immunostaining of substantia nigra. In kind it is in vivo. The settings on record: MPTP 4 x 18 mg/kg i.p.; 10 mg/kg oral gavage, 7 days. The procedure: PK analogs attenuate dopaminergic neuronal cell loss induced by MPTP toxicity in mouse substantia nigra. Lead PK analogs were examined to determine whether they could protect against MPTP-induced dopaminergic neuronal loss in C57 black mice. Mice received 4 doses of MPTP at 18 mg/kg i.p. at 2 hr interval. Oral administration of PK analogs (10 mg/kg body wt, oral gavage) was continued for 7 days. Mice were sacrificed after 7 days of MPTP injections. (n=5).
Abbreviataions: M: MPTP; SNpc: substantia nigra pars compacta; SNl: substantia nigra lateralis; SNr: substantia nigra reticularis; VTA: Ventral tegmental area.

Series [8] deals with N27 cells. The series is described as follows: MPP+-induced DNA fragmentation in N27 cells. In kind it is cell-based, rat. The settings on record: co-treated with 3 μM. From the text:
To determine whether PK analogs are neuroprotective against MPP+-induced increases in caspase-3 and DNA fragmentation, their effects on MPP+-induced increases in caspase-3 activity and DNA fragmentation, markers of apoptotic cell death, were examined. All three analogs PK101-103 protected N27 cells from MPP+-induced caspase-3 activation and DNA fragmentation. […] (**p<0.01 and ***p<0.001, compared to vehicle control; #p<0.05, ##p<0.01, compared to MPP+ treatment).

The mark [9] stands for this setting: co-treated with 0.3, 1 and 3 μM.

Read-outs that look alike come from different tables or passages of the source.

T2 sequence (Q16539 whole entry): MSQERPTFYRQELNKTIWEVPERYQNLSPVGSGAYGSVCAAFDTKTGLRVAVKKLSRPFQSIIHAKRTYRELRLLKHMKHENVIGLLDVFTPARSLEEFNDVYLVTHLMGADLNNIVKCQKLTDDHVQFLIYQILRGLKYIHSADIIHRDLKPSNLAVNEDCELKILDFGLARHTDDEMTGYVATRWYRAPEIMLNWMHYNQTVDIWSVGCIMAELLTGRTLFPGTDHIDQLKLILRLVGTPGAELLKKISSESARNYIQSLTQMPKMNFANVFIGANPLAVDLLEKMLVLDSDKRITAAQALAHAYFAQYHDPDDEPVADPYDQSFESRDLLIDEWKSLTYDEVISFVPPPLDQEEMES
Chain of PKCδ (Q05655 whole entry): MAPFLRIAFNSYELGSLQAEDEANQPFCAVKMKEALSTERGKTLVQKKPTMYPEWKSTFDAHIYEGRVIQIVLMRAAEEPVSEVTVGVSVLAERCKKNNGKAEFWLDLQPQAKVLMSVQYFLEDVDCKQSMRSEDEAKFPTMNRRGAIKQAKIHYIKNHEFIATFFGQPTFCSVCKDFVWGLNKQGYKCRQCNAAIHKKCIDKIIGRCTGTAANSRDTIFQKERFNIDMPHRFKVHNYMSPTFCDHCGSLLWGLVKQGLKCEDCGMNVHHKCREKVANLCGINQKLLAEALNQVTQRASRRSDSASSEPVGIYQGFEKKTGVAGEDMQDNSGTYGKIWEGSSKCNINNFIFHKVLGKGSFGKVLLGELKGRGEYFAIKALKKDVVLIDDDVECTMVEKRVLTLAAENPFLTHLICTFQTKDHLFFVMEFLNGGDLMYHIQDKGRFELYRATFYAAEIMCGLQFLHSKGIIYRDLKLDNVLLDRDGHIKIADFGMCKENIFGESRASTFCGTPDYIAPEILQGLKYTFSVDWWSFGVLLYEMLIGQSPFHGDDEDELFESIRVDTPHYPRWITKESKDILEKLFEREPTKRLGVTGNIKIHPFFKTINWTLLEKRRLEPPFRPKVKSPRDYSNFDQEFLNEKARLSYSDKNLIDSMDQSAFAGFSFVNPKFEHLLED

Consider `CC(=O)c1c(O)c(C)c(O)c(Cc2c(O)c3c(c(C(=O)/C=C/c4ccccc4)c2O)OC(C)(C)C=C3)c1O` [Rottlerin, (E)-1-[6-[(3-acetyl-2,4,6-trihydroxy-5-methylphenyl)methyl]-5,7-dihydroxy-2,2-dimethylchromen-8-yl]-3-phenylprop-2-en-1-one], for which the results for the “% activity change” value in series [1], in series [2] and in series [3] were −5%, −1% and −7%, respectively. Further, the IC50 (usually the point on the concentration scale where inhibition reaches its midpoint) in series [4] is 3 to 6 µM. Further, in series [5], the “protection against MPP+-induced loss of dopaminergic neurons (dopamine uptake)” value is reported as “protected”.
For the molecule `CC1(C)C=Cc2c(O)cc(O)c(C(=O)/C=C/c3ccccc3)c2O1` [PK302], the results for the “% activity change” value in series [1], in series [2] and in series [3] were 2%, −4% and 13%, respectively. For the same molecule, the “relative potency against MPP+-induced cytotoxic cell death within the generation” value in series [6] was “more potent inhibitors than PK301”. The “blockage of MPP+-induced cytotoxicity” value in series [6] (setting [9]) is given as “significant blockage”. In addition, the “protection against MPTP-induced nigral dopaminergic degeneration (TH immunostaining)” value (shortened to “protection … (TH immunostaining)”) in series [7] is listed as “significant protection”.
For `Oc1cc(O)c(Cc2c(O)cc(O)cc2O)c(O)c1` [PK103], the figures for the “% activity change” value in series [1], in series [2] and in series [3] were 6%, −5% and −1%, respectively. For the same molecule, in series [6] (co-treated with 3 μM), the “blockage of MPP+-induced cytotoxicity” value was “significant blockage”. Besides, the “protection … (TH immunostaining)” value in series [7] is recorded as “significant protection”. For the same molecule, the “blockage of MPP+-induced DNA fragmentation” value in series [8] was “significant blockage”.
As to `CC(=O)c1c(O)c(C)c(O)c(Cc2c(O)c3c(c4c2OC(c2ccccc2)CC4=O)OC(C)(C)C=C3)c1O` (centres unmarked) [PK202], the “% activity change” value is 6% in series [1], −1% in series [2] and 9% in series [3]. For the same molecule, the “relative potency against MPP+-induced cytotoxic cell death within the generation” value in series [6] is “most potent inhibitor”. The “blockage of MPP+-induced cytotoxicity” value in series [6] (setting [9]) was “significant blockage”. The “protection … (TH immunostaining)” value in series [7] is recorded as “significant protection”.
